Test results: publication PMC7018972, “Novel and selective inactivators of Triosephosphate isomerase with anti-trematode activity” (Scientific Reports, 2020)
“Also recorded” adds a separate entry of the source. Marks after values point to notes of the source that are not given here.

Key:
[1] = Acute oral toxicity (up-and-down); type: in vivo; details: mice
Procedure: Briefly, healthy young adult male BALB/c mice (30 days old, 25 to 30 g) were used in this study. […] The animal was fasted, maintained, and observed for 14 days according to the OECD guidelines. If the mouse survived for the first 48 h, another animal received the same dose. If this was repeated, a third animal was dosed with 2,000 mg/kg and also observed for 14 days. The experiment ends at 14 days post-administration, if there are no signs of toxicity, the (LD50) is the administered dose, if not, the software AOT AOT425 Stat program recommendation was followed. […] In parallel, sodium oleate was dissolved in phosphate buffer and left in an orbital shaker for 12 h at room temperature. The former was then added to the evaporated residue, and the mixture was homogenized and placed in an ultrasonic bath at full power for 30 min. The sample was kept at room temperature until use.

S. mansoni somules = S. mansoni somules phenotypic screen in vitro; type: cell-based, Schistosoma mansoni; details: for SOMULES SEVERITY SCORE: Table 2S, 10 uM
Excerpt: (§1) The NMRI isolate of S. mansoni was maintained by passage through Biomphalaria glabrata snails and 3–5 week-old, female Golden Syrian hamsters (Charles River, San Diego, CA) as intermediate and definite hosts, respectively. A dose of 600 infective larvae (cercariae) was used to infect hamsters. The acquisition, preparation and in vitro maintenance of S. mansoni post-infective larvae (schistosomula or somules) and adults have been already described[5],[50],[51]. Vertebrate animal maintenance and handling at the University of California San Diego Animal Care Facility were in accordance with protocols approved by the university’s Institutional Animal Care and Use Committee (IACUC).
Phenotypic screens with somules were performed as described[5],[50],[51]. Initially, 100 μL Basch medium, 100 U/ml penicillin, […] streptomycin, 4% heat-inactivated FBS (Corning Mediatech) and 1 μl compound in DMSO were added to clear, 96-well round-bottomed plates (Costar cat.# 3367). Then, 100 μL of the same medium containing 40–50 somules was added to mix the compound with somules (final concentration of DMSO was 0.5%). Assay plates were placed into plastic boxes humidified with wet tissue and then incubated at 37 °C in a 5% CO2 environment. Somules phenotypes were recorded every 24 h up to 72 h using an inverted microscope (Zeiss Axiovert 40 C).
(§2) Schistosome phenotypic responses were recorded employing a series of ‘descriptors,’ such as rounding, degeneration, overactivity, loss of translucency and changes in motility, as described previously[5],[50],[51],[53]. To allow for comparisons of compound activity, each descriptor was awarded a value of 1 and these were added up to a maximum ‘severity score’ of 4. Evidence of degeneracy or death was awarded the maximum score of 4. Scores were averaged across duplicate wells for each compound (see details in the supporting information).

NEJ = test system: NEJ; parameters: method as in PMID 22536349; details: 48 h, fixed dose of 20 µM; cited from earlier work
S. mansoni adults = S. mansoni adults phenotypic screen ex vivo; type: cell-based, Schistosoma mansoni; details: for ADULTS SEVERITY SCORE: Table 2S, 5 uM
Excerpt: as §1
Phenotypic screens with 42-day-old, adult parasites were performed in 24-well plates (Costar cat.# 3526) containing the above medium and approximately five adult males and two females per well. Compound was added in a volume of up to 1 μL DMSO at a concentration of 5 µM (0.05% DMSO final). Assay plates were incubated at 37 °C in a 5% CO2 environment. Parasite phenotypes were recorded at 4, 8 and 24 h using a Zeiss Axiovert 40 C.
as §2

[2] = test system: adult form of F. hepatica; assay: Ex-vivo assay in the adult form of F. hepatica; type: cell-based, Fasciola hepatica
Procedure: F. hepatica were collected from natural infections of cattle obtained from Casablanca slaughterhouse in Paysandú, Uruguay[49]. […] After flukes emptied their gut content (i.e. the gut was not dark anymore) they were transferred to 6 well plates (one fluke per well) with 2 mL of RPMI 1640 media with 200 U/mL Penicillin G sulfate, […] streptomycin sulfate, 500 ng/mL amphotericin B and 10 mM glucose at 37 °C. […] The antiparasitic efficacy was expressed as the percentage reduction of the number of flukes in the treated group compared with the control group.

[3] = test system: murine macrophages and human peripheral blood mononuclear cells; parameters: method as in PMID 22536349; details: at 100 µM; cited from earlier work
[4] = test system: Echinococcus granulosus protoscolex; parameters: method as in PMID 22536349; details: 48 h, fixed dose of 20 µM; cited from earlier work
[5] = test system: thioredoxin glutathione reductase; parameters: method as in PMID 22536349; details: cited from earlier work

In the case of `Cc1ccc(-c2nsc(S(=O)(=O)c3ccc(C)cc3)n2)cc1` [Compound 187], the “acute oral toxicity in words” value [1] is reported as “low toxicity”, the LD50 ([1]; up-and-down, 14 days) is reported as at least 2000 mg/kg body weight and the “S. mansoni somules severity score” value (S. mansoni somules; Table 2, 24 h, score 0 to maximum 4) is reported as 4 (24 h)^##. For the same compound, the “SOMULES SEVERITY SCORE” value (S. mansoni somules; 24 h) was 4, the “SOMULES SEVERITY SCORE” value (S. mansoni somules; 48 h) was 4 and the “SOMULES SEVERITY SCORE” value (S. mansoni somules; 3d) was 4. The “effect on S. mansoni somules in words” value (S. mansoni somules; in the first 24 h) was “lethal to somules”, the “effect on NEJ in words” value (NEJ) was “showed effect” and the “effect on S. mansoni adults in words” value (S. mansoni adults; 24 h, 5 µM) was “decreased the motility of adults and the ability of their oral and ventral suckers to adhere; also recorded: decreased motility and loss of their ventral sucker adherence to the plate floor”. The “ADULTS SEVERITY SCORE” value (S. mansoni adults; 4 h) was 0, the “ADULTS SEVERITY SCORE” value (S. mansoni adults; 8 h) was 0 and the “ADULTS SEVERITY SCORE” value (S. mansoni adults; 24 h) was 2. The “effect on adult F. hepatica in words” value ([2]; after 24 h, 10 µM) was “death of all the parasites”, the “effect on adult F. hepatica in words” value ([2]; first 4 h at 10 µM) was “parasites were affected” and the toxicity in words [3] was “non-toxic”. For the same compound, the “effect on Echinococcus granulosus protoscolex in words” value [4] was “showed effect” and the “inhibition of thioredoxin glutathione reductase in words” value [5] was “moderate inhibitor”.
